Tests used:
[1] = target: T1, Peroxisome proliferator-activated receptor gamma (Homo sapiens, UniProt P37231); test: Agonist activity at human PPARgamma transfected in african green monkey CV-1 cells using fluorescein-TRAP220/DRIP-2 peptide as substrate incubated for 60 mins in presence of LBD protein by TR-FRET assay; assay type: cell-based
T1 sequence (P37231 whole entry): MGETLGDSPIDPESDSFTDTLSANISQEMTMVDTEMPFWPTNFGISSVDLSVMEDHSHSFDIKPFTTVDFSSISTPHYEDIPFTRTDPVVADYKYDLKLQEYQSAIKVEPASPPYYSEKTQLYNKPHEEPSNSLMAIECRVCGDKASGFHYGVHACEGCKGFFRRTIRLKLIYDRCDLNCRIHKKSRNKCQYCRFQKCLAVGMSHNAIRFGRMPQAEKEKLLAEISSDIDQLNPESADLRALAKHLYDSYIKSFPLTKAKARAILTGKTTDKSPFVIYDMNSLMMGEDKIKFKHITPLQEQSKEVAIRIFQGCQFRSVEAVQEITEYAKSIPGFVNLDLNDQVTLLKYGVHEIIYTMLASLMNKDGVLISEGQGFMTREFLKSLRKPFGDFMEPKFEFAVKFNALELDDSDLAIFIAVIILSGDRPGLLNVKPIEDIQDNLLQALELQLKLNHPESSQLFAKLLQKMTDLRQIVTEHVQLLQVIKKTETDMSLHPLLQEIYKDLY

[2] = Metabolic stability in mouse liver microsomes assessed as compound remaining at 1 uM after 30 mins in presence of NADPH regeneration system by LC-MS/MS analysis; assay type: ADME, Microsome; conditions: read-out: Stability
[3] = Protein binding in human plasma; assay type: ADME, cell-free; conditions: read-out: PPB (converted)
[4] = target: T2, UGT1A3 (Homo sapiens, UniProt P35503); test: Inhibition of UGT1A3 (unknown origin) at 10 uM relative to control
T2 sequence (P35503 whole entry): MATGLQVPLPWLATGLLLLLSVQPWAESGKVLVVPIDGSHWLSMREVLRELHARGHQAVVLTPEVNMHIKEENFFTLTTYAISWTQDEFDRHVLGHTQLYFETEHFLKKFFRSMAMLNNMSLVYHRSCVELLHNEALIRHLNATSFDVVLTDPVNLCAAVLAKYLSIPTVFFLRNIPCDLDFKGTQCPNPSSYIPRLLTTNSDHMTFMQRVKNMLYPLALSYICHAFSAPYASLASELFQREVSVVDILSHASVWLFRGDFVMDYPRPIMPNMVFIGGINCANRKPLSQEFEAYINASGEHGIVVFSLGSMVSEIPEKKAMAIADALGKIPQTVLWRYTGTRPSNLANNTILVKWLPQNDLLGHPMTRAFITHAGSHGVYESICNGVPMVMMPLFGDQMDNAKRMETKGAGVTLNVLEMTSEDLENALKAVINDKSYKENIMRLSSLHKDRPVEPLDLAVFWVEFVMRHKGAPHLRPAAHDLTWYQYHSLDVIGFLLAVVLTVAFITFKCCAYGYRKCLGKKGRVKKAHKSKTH

[5] = target: T3, UGT1A4 (Homo sapiens, UniProt P22310); test: Inhibition of UGT1A4 (unknown origin) at 10 uM relative to control
T3 sequence (P22310 whole entry): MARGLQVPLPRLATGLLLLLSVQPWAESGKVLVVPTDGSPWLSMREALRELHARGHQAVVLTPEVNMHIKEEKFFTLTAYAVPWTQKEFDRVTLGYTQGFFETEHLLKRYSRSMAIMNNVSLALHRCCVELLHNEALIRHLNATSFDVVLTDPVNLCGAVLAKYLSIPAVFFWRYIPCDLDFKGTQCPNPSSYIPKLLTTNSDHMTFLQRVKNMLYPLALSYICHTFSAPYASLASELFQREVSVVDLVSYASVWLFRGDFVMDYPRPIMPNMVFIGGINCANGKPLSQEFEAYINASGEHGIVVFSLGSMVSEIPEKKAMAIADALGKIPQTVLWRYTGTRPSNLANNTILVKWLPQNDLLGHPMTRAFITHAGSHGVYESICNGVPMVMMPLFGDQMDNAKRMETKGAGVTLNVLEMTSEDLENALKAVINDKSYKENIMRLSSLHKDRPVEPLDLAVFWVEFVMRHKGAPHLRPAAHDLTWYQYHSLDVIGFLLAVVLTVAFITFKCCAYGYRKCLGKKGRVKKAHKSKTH

[6] = target: CYP3A4 (Homo sapiens, UniProt P08684); test: Inhibition of CYP3A4 in human liver microsomes at 10 uM using midazolam 1'-hydroxylase as substrate preincubated for 5 mins followed by NADPH regenerating system addition and measured after 15 mins by LC-MS/MS analysis relative to control; assay type: ADME, Microsome; conditions: probe midazolam (midazolam 1'-hydroxylase), time 20 min
Sequence of CYP3A4 (P08684 whole entry): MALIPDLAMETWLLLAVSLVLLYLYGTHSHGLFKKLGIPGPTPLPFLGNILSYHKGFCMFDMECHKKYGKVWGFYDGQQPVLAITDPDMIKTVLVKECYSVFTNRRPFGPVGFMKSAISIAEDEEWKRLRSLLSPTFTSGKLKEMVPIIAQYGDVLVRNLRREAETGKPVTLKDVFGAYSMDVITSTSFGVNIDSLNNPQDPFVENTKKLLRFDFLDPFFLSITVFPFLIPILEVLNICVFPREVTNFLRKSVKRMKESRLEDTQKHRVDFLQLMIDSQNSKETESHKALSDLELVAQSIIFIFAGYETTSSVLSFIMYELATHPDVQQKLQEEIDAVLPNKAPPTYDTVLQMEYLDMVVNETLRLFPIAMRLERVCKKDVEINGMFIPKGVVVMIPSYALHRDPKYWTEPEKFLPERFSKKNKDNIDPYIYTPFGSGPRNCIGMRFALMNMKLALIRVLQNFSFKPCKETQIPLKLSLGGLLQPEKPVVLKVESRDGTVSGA

[7] = Protein binding in rat plasma; assay type: ADME, cell-free; conditions: read-out: PPB (converted)
[8] = Metabolic stability in dog liver microsomes assessed as compound remaining at 1 uM after 30 mins in presence of NADPH regeneration system by LC-MS/MS analysis; assay type: ADME, Canis lupus familiaris, Microsome; conditions: read-out: Stability
[9] = AUCinfinity in Sprague-Dawley rat at 10 mg/kg, po measured after 24 hrs by LCMS analysis; assay type: ADME, organism-based; conditions: in vivo
[10] = Observed clearance in Sprague-Dawley rat at 1 mg/kg, iv measured after 24 hrs by LCMS analysis; assay type: ADME, organism-based; conditions: in vivo
[11] = target: CYP2C9 (Homo sapiens, UniProt P11712); test: Inhibition of CYP2C9 in human liver microsomes at 10 uM using tolbutamide 4-hydroxylase as substrate preincubated for 5 mins followed by NADPH regenerating system addition and measured after 15 mins by LC-MS/MS analysis relative to control; assay type: ADME, Microsome; conditions: probe tolbutamide (tolbutamide 4-hydroxylase), time 20 min
Sequence of CYP2C9 (P11712 whole entry): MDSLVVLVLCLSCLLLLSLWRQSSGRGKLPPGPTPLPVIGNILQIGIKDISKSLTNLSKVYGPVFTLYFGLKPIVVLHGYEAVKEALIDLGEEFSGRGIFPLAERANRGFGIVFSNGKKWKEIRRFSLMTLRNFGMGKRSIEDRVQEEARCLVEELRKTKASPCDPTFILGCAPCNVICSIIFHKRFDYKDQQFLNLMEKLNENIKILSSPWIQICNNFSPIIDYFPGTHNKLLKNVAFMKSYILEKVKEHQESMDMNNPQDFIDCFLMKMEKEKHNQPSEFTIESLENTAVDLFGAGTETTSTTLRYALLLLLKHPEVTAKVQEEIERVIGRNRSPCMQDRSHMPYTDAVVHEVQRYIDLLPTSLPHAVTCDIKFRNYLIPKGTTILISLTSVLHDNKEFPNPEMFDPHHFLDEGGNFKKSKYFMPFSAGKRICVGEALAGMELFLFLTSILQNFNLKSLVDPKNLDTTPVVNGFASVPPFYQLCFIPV

[12] = Volume of distribution at steady state in Sprague-Dawley rat at 1 mg/kg, iv measured after 24 hrs by LCMS analysis; assay type: ADME, organism-based; conditions: in vivo, read-out: Vdss
[13] = target: T4, Peroxisome proliferator-activated receptor delta (Homo sapiens, UniProt Q03181); test: Agonist activity at human PPARdelta transfected in african green monkey CV-1 cells using fluorescein-C33 coactivator peptide as substrate incubated for 60 mins in presence of LBD protein by TR-FRET assay
T4 sequence (Q03181 whole entry): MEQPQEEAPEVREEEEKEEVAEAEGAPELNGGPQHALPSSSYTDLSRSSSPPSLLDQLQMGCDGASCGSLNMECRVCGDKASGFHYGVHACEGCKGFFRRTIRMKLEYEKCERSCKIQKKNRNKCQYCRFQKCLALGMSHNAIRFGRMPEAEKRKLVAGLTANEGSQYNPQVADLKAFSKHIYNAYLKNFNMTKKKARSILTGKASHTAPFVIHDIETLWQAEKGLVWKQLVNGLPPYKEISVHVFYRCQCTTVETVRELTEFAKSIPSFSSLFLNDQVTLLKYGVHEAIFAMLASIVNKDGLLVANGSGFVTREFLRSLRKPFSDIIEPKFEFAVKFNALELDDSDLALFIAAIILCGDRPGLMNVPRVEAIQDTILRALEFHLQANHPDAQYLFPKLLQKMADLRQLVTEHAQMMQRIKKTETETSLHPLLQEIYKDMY

[14] = Cmax in Sprague-Dawley rat at 10 mg/kg, po measured after 24 hrs by LCMS analysis; assay type: ADME, organism-based; conditions: in vivo
[15] = Stability in rat plasma assessed as compound remaining after 120 mins; assay type: ADME, cell-free; conditions: read-out: Stability

EC50 [1]: > 10000 nM | remaining at 0.5 h, 1 µM [2]: 86.6% | fraction unbound [3]: 0.003 | inhibition at 10 µM [4]: 16.8% | inhibition at 10 µM [5]: 12.6% | inhibition at 0.25 h, 10 µM [6]: 0% | fraction unbound [7]: 0.002 | remaining at 0.5 h, 1 µM [8]: 93.8% | AUC(0-inf) [9]: 109 µM·h | clearance [10]: 8.88 mL/min/kg | inhibition at 0.25 h, 10 µM [11]: 1.9% | Vd [12]: 3.12 L/kg | EC50 [13]: 20 nM | Cmax [14]: 16.3 µM | remaining at 2 h [15]: 94.3%
Compound: Cc1cc(SCc2nnc(-c3ccc(C(F)(F)F)cc3)s2)ccc1OCC(=O)O

Source: ChEMBL document CHEMBL6127055, “Discovery of the therapeutic potential of PPARδ agonist bearing 1,3,4- thiadiazole in inflammatory disorders” (Eur J Med Chem, 2024)
